Experiment [1] deals with T1, Adrenergic receptor alpha-1 (Homo sapiens, UniProt P35348+P25100+P35368).
T1 sequence (P35348 whole entry): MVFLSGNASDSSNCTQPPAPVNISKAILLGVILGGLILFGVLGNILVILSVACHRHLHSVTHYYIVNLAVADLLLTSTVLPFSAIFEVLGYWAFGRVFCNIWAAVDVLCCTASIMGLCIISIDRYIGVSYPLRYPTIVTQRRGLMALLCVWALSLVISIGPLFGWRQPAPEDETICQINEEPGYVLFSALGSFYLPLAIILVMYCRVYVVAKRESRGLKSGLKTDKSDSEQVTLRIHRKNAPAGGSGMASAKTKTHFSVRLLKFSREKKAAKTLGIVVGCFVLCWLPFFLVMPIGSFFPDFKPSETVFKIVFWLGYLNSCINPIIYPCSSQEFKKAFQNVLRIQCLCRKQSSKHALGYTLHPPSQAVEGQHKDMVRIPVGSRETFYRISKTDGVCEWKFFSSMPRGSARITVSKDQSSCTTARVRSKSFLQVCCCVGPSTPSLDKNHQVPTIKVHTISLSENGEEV
T1 sequence (P25100 whole entry): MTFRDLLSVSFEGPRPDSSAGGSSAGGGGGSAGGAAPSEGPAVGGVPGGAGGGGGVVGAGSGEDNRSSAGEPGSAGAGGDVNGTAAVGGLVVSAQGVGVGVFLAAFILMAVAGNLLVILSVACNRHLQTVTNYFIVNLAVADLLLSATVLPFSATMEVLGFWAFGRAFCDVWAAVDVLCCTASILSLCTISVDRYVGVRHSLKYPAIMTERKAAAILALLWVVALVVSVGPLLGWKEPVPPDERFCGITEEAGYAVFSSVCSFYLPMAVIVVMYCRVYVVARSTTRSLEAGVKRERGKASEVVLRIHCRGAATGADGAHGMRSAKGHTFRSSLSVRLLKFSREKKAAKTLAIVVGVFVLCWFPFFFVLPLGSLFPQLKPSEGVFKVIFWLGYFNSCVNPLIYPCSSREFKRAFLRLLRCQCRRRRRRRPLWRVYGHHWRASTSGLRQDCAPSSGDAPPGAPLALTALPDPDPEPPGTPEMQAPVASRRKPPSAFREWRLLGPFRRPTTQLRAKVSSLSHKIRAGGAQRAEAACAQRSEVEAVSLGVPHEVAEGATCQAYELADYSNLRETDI
T1 sequence (P35368 whole entry): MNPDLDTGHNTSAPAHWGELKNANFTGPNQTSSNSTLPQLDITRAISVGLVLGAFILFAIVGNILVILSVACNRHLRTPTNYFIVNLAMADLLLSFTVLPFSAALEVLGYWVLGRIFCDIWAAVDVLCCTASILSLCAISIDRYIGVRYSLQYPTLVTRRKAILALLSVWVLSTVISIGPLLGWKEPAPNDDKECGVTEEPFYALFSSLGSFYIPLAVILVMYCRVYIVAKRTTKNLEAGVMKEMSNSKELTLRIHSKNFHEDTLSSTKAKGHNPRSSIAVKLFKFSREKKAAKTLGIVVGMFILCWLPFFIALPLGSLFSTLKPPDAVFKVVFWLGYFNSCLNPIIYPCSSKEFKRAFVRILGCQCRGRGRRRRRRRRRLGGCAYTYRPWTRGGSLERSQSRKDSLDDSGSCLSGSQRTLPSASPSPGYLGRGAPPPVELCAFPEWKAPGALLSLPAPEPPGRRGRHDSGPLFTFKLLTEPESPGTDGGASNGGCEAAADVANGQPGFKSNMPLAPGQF
In words: Inhibition of alpha-1-adrenergic receptor. Type of experiment: protein assay.

The target of experiment [2] is 5-hydroxytryptamine receptor 4 (Rattus norvegicus, UniProt Q62758). Put plainly: Inhibition of rat hydroxytryptamine 4 receptor.
Sequence of 5-hydroxytryptamine receptor 4 (Q62758 whole entry): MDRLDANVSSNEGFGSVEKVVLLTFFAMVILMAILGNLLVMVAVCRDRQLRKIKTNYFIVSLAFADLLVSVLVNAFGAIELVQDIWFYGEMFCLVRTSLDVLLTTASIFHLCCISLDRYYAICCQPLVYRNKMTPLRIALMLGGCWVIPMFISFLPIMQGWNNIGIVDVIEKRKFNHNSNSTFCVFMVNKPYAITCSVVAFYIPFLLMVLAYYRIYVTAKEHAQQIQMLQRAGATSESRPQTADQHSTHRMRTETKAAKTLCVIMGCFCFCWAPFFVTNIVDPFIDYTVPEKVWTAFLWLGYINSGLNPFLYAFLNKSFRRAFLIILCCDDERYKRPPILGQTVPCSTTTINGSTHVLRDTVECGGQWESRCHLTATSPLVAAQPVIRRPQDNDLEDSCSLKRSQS

For orientation: IC50 means the concentration at which inhibition is half-maximal. A high value points to weaker potency. As to `N#Cc1ccc2[nH]cc(CCCCN3CCN(c4ccc5oc(C(N)=O)cc5c4)CC3)c2c1` [VILAZODONE], the IC50 in experiment [1] came out at 1.98 µM; in experiment [2], 0.252 µM.

The values above are taken from ChEMBL document CHEMBL1138747, “Synthesis and structure--activity relationship in a class of indolebutylpiperazines as dual 5-HT(1A) receptor agonists and serotonin reuptake inhibitors” (J Med Chem, 2004).
